Data set [1] concerns the target T1, Recombinant ROCK1 (amino acids 1-477) (Homo sapiens, UniProt Q13464).
T1 construct: Recombinant ROCK1 (amino acids 1-477)
The experiment in a line: ROCK inhibition assay, LANCE Ultra TR-FRET (ROCK1). Format: biochemical. To be noted: 1 mM of ATP. Background: Time-resolved FRET reads energy transfer from a long-lived donor to a nearby acceptor.

For data set [2], the target named is T2, Recombinant ROCK2 (amino acids 5-554) (Homo sapiens, UniProt O75116).
T2 construct: ROCK2 (amino acids 5-554)
T2 sequence (O75116 5-554): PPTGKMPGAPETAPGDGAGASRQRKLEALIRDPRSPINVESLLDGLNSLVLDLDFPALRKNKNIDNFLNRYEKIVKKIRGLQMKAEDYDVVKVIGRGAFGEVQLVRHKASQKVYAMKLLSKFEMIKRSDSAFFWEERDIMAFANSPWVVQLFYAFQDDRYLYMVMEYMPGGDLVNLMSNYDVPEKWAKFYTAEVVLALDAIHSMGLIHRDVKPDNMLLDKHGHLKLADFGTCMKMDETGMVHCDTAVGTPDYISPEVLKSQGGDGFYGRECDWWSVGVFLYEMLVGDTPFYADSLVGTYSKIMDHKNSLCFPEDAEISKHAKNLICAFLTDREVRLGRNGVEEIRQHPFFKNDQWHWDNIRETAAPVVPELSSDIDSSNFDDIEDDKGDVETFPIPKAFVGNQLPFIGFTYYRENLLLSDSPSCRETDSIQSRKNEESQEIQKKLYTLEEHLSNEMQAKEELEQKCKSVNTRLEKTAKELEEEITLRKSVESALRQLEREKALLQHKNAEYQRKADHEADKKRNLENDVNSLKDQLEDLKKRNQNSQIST
The experiment in a line: ROCK inhibition assay, LANCE Ultra TR-FRET (ROCK2). Format: biochemical. To be noted: 1 mM of ATP.

The nature of data set [3]: Blood-brain barrier penetration, brain-to-plasma ratio in mouse. Format: in vivo. The settings on record: CD-1 mouse, IV 1 mg/kg, n=3. As for the experimental part:
(§1) The concentrations of compounds of (1) in blood and brain were measured from plasma and brain samples taken 0.25 and 2 hours after intravenous (IV) administration of the compounds of (1) at 1 mg/kg in CD-1 mouse and Sprague-Dawley rat (n=3). After euthanizing the mouse and rat, blood samples from cardiac puncture and brain tissue were collected. Plasma or brain homogenate was vortexed for 1 min. with internal standard in Methanol/Acetonitrile (1:1, v/v), and centrifuged at 4000-4500 rpm for 15 min. at room temperature to precipitate proteins. Subsequently, the supernatant was introduced into the LC/MS/MS system. An AB Sciex API 5500 mass spectrometer system (Sciex, USA) was used for quantitative analysis. The concentrations compounds of (1) in plasma and brain sample were determined using the standard calibration curve and brain-to-plasma concentration ratio was calculated.

The nature of data set [4]: Blood-brain barrier penetration, brain-to-plasma ratio in rat. Format: in vivo. The settings on record: Sprague-Dawley rat, IV 1 mg/kg, n=3. As for the experimental part: as §1

Experimental findings from patent US20240360139A1, “BLOOD BRAIN BARRIER PENETRATING SELECTIVE INHIBITORS OF ROCK2 PROTEIN KINASES AND USES THEREOF” (GENOSCO Inc., priority 2023, published 2024) are described below.

For orientation: IC50 means the midpoint of a concentration-inhibition curve. The Kp is the ratio of the level in a tissue or fluid to that in plasma or blood.

T1 sequence (Q13464 1-477): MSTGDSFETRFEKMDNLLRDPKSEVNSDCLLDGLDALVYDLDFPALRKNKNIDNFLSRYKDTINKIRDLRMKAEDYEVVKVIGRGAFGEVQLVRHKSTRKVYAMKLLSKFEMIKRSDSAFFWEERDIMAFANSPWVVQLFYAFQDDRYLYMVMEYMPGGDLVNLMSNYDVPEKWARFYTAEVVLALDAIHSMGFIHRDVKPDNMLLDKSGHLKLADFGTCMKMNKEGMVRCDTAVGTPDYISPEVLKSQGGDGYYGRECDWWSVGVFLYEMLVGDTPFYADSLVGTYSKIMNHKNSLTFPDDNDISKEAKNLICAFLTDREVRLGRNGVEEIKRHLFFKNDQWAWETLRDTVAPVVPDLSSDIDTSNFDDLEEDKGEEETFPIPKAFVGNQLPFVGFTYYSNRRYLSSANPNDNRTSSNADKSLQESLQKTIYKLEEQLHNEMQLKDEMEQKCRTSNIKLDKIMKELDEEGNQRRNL

`CN1CC[C@@H]1Cn1cc(C(=O)C2COc3ccc(Cl)cc3C2)c2ccc(-c3cn[nH]c3Cl)cc21` (some centres unmarked) [Compound 1-55]: the IC50 in data set [1] was above 501 nM; in data set [2], below 20 nM. The Kp at 0.25 h in data set [3] is 0.67; in data set [4] it was 0.4. For the same compound, the Kp at 2 h was 0.8 in data set [3] and 0.59 in data set [4].
On to `CNCCn1cc(C(=O)C2COc3ccc(OC)cc3C2)c2ccc(-c3cn[nH]c3F)cc21` (centres unmarked) [Compound 3-24], for which the IC50 in data set [1] was above 501 nM; in data set [2], 21 to 200 nM. Also, the Kp at 0.25 h in data set [3] came to 0.96; in data set [4], 1.37. In addition, the Kp at 2 h in data set [3] was 0.54; in data set [4] it was 1.38.
`CN1CC[C@H]1Cn1nc(C(=O)C2COc3ccc(F)cc3C2)c2ccc(-c3c[nH]nc3F)cc21` (some centres unmarked) [Compound 5-56]: the results for the half-inhibitory concentration (IC50) in data set [1] and in data set [2] were above 501 nM and 21 to 200 nM, respectively. For the same compound, the Kp at 0.25 h in data set [3] came to 7.32; in data set [4], 12.4. For the same compound, the Kp at 2 h in data set [3] is 10.2; in data set [4], 20.2.
Turning to `CCN(CC)CCn1cc(C(=O)C2COc3ccc(OC)cc3C2)c2ccc(-c3cn[nH]c3Cl)cc21` (centres unmarked) [Compound 3-17], the results for the IC50 in data set [1] and in data set [2] were above 501 nM and 21 to 200 nM, respectively. The results for the Kp at 0.25 h in data set [3] and in data set [4] were 0.73 and 1.05, respectively. For the same compound, the Kp at 2 h in data set [3] was found to be 0.92; in data set [4], 0.98.
As for `CN(C)CCn1cc(C(=O)C2COc3ccc(Cl)cc3C2)c2cnc(-c3c[nH]nc3Cl)cc21` (centres unmarked) [Compound 1-11], the IC50 in data set [1] and in data set [2] was above 501 nM in each case.
Regarding `CCN(C)CCn1cc(C(=O)[C@@H]2COc3ccc(OC)cc3C2)c2ccc(-c3cn[nH]c3Cl)cc21` [Compound 3-26], the IC50 is above 501 nM in data set [1] and below 20 nM in data set [2].
`NCCn1cc(C(=O)C2COc3ccc(F)cc3C2)c2cnc(-c3c[nH]nc3Cl)cc21` (centres unmarked) [Compound 2-3]: the figures for the concentration for half-maximal inhibition (IC50) in data set [1] and in data set [2] were 21 to 200 nM and below 20 nM, respectively.
On to `CN1CC[C@H]1Cn1nc(C(=O)[C@@H]2COc3ccc(F)cc3C2)c2ccc(-c3c[nH]nc3F)cc21` [Compound 5-57], for which the IC50 in data set [1] was 201 to 500 nM; in data set [2], below 20 nM.
For the compound `CCN(C)CCn1cc(C(=O)C2COc3ccc(Cl)cc3C2)c2ccc(-c3cn[nH]c3OC)cc21` (centres unmarked) [Compound 3-11], the IC50 in data set [1] was above 501 nM; in data set [2], 21 to 200 nM.
In the case of `COc1ccc2c(c1)CC(C(=O)c1cn(C[C@@H]3CCN3)c3cc(-c4cn[nH]c4OC)ccc13)CO2` (some centres unmarked) [Compound 1-41], the values for the IC50 in data set [1] and in data set [2] were 201 to 500 nM and below 20 nM, respectively.
The matching figures for `CN(C)CCn1nc(C(=O)C2COc3ccc(F)cc3C2)c2ccc(-c3c[nH]nc3Cl)cc21` (centres unmarked) [Compound 5-52]: 201 to 500 nM and below 20 nM.
For `C[C@H](Cn1cc(C(=O)C2COc3ccc(Cl)cc3C2)c2ccc(-c3cn[nH]c3F)cc21)N(C)C` (some centres unmarked) [Compound 2-16], in that order: above 501 nM and below 20 nM.
For `COc1ccc2c(c1)C[C@H](C(=O)c1cn(C[C@H]3CCN3CC(F)(F)F)c3cc(-c4c[nH]nc4Cl)ccc13)CO2` [Compound 5-11], in that order: 21 to 200 nM and 21 to 200 nM.
Regarding `COc1n[nH]cc1-c1ccc2c(C(=O)C3COc4ccc(Cl)cc4O3)nn(CCN(C)C)c2c1` (centres unmarked) [Compound 5-59], the figures for the IC50 in data set [1] and in data set [2] were above 501 nM and 21 to 200 nM, respectively.
For `C[C@H](Cn1cc(C(=O)C2COc3ccc(Cl)cc3C2)c2ccc(-c3cn[nH]c3Cl)cc21)N(C)C` (some centres unmarked) [Compound 2-15], in that order: 201 to 500 nM and below 20 nM.
For `COc1ccc2c(c1)CC(C(=O)c1cn(C[C@H]3CCN3)c3cc(-c4cn[nH]c4F)ccc13)CO2` (some centres unmarked) [Compound 1-38], in that order: 201 to 500 nM and below 20 nM.
For `C[C@H](Cn1cc(C(=O)[C@@H]2COc3ccc(Cl)cc3C2)c2ccc(-c3cn[nH]c3F)cc21)N(C)C` [Compound 2-17], in that order: 201 to 500 nM and below 20 nM.
